For assay [1], the system named is T. cruzi amastigotes within Vero cells. Briefly: Drug sensitivity assay against T. cruzi-infected Vero cells (intracellular amastigotes). As to conditions: for EC50: Trypanosoma cruzi, Vero. The assay is classed as cell-based, Trypanosoma cruzi. As for the experimental part: The clonal Leishmania donovani cell line LdBOB (derived from MHOM/SD/62/1S-CL2D) was grown as either promastigotes or axenic amastigotes in media specific for each developmental stage, as previously described ([32]). T. cruzi epimastigotes from the Silvio strain (MHOM/BR/78/Silvio; clone X10/7A [33]) were grown at 28°C in RTH/FBS (RPMI 1640 medium supplemented with Trypticase, hemin, HEPES, and 10% heat-inactivated fetal calf serum (FCS) [Fisher Scientific]) ([34]). Bloodstream form T. brucei “single marker” S427 (T7RPOL TETR NEO) were cultured in the presence of G418 (15 μg ml^−1) at 37°C in HMI9-T media in the presence of 5% CO2. HepG2 cells (ECACC 85011430) were obtained from European Collection of Authenticated Cell Culture (ECACC). Cells were maintained in full growth medium (minimal essential medium [MEM] with GlutaMAX (Thermo Fisher), supplemented with 1% MEM nonessential amino acids (Sigma) and 10% heat-inactivated FBS and cultured at 37°C in the presence of 5% CO2. Cells were passaged twice weekly by detaching adherent cells with 0.05% trypsin/EDTA (Sigma) and diluted into fresh media. Cells were never grown beyond 80% confluence. Vero cells (African green monkey kidney cells; ECCAC 84113001) were maintained at 37°C, 5% CO2 in Dulbecco modified Eagle medium (DMEM; Lonza) supplemented with 10% FCS and subcultured every 2 days. T. cruzi metacyclic trypomastigotes were obtained from late-log-phase epimastigote cultures (initial inoculum, 10^6 ml^−1) after ca. 7 to 10 days at 28°C in RTH/FBS. Trypomastigote-rich cultures were incubated with Vero cells overnight at 37°C and 5% CO2 in DMEM/10% FCS. The following day, extracellular parasites were removed by washing the Vero cell monolayer three times. Infected monolayers were maintained at 37°C and in 5% CO2, DMEM/10% FCS was replaced every 48 h until the trypomastigotes reemerged from the Vero cells ([9]).
Drug sensitivity assays against T. cruzi-infected Vero cells were carried out as previously described ([37]); however, in this instance, assays were carried out in 96-well plates. Data were processed using GRAFIT (Erithacus software) and fitted to a two-parameter equation, as described above.

Assay [2] relates to L. donovani, T. cruzi, and T. brucei. Briefly: Phenotypic screening against three kinetoplastids. The assay is classed as cell-based. Conditions: range over all three kinetoplastids; read-out: EC50 values against the mammalian stages of these parasites.

The structures appear in SMILES notation. Like-named read-outs stand apart in the source and are kept apart here.

For the compound `COc1ccc(NS(=O)(=O)c2cc(-c3cc(C)n[nH]3)ccc2C)cc1OC` [Compound 1], the EC50 in assay [1] (T. cruzi Intra-Vero, weighted mean, n ≥ 3, read-out: Mean compound 1 EC50 ± SD) is 1300 ± 200 nM; in assay [1] (in Vero cells, cell line ME OE, (*) one biological replicate, read-out: EC50 values), 800 ± 70 nM; in assay [1] (in Vero cells, cell line RES 1, read-out: EC50 values), 10000 ± 5000 nM; in assay [1] (in Vero cells, cell line RES 5, read-out: EC50 values), over 50000 nM; in assay [1] (in Vero cells, cell line Wild-type, read-out: EC50 values), 1000 ± 200 nM; in assay [1] (in Vero cells, cell line β5 OE rescue R1, (*) one biological replicate, read-out: EC50 values), 3000 ± 200 nM. For the same compound, the concentration giving a half-maximal response (EC50) was 1000 ± 200 nM in assay [1] (in Vero cells, cell line β5 OE, read-out: EC50 values); over 23000 nM in assay [1] (read-out: EC50 values, in Vero cells, cell line β4 F24L/I29M); 12000 ± 1400 nM in assay [1] (read-out: EC50 values, in Vero cells, cell line β5 D225N-OE, (*) one biological replicate); 0.1 to 8 µM in assay [2]. The “fold change versus WT” value was 1 fold in assay [1] (in Vero cells, cell line ME OE); 8 fold in assay [1] (in Vero cells, cell line RES 1); over 42 fold in assay [1] (in Vero cells, cell line RES 5); 1 fold in assay [1] (in Vero cells, cell line Wild-type); over 19 fold in assay [1] (in Vero cells, cell line β4 F24L/I29M); 10 fold in assay [1] (in Vero cells, cell line β5 D225N-OE). The “fold change versus WT” value in assay [1] (in Vero cells, cell line β5 OE) stood at 1 fold; in assay [1] (in Vero cells, cell line β5 OE rescue R1), 2 fold.

The term EC50 denotes the concentration at which the effect is half-maximal.

These data come from article PMC8765320, “Identification of a Proteasome-Targeting Arylsulfonamide with Potential for the Treatment of Chagas’ Disease” (Antimicrobial Agents and Chemotherapy, 2022).
